Experimental findings from publication PMC12155096 (International Journal of Molecular Sciences, 2025) are described below.

Series [1] deals with T1, human CYP1A2 (Homo sapiens, UniProt P05177).
T1 sequence (P05177 1-516): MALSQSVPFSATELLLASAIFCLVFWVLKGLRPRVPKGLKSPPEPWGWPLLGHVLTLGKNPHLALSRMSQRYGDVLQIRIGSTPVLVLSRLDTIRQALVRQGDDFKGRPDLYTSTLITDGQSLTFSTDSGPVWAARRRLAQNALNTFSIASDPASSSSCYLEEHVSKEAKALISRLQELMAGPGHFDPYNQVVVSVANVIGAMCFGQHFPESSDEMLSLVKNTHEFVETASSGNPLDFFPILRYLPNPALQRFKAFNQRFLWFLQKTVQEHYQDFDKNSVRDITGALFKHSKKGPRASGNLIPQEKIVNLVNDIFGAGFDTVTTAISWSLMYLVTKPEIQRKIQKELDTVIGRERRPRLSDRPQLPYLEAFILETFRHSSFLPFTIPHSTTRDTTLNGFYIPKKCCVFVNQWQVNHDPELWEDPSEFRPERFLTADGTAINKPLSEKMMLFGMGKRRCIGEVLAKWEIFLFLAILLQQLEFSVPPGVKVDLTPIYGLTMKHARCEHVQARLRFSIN

Series [2] deals with human CYP2C9 (Homo sapiens, UniProt P11712).
human CYP2C9, sequence (P11712 whole entry): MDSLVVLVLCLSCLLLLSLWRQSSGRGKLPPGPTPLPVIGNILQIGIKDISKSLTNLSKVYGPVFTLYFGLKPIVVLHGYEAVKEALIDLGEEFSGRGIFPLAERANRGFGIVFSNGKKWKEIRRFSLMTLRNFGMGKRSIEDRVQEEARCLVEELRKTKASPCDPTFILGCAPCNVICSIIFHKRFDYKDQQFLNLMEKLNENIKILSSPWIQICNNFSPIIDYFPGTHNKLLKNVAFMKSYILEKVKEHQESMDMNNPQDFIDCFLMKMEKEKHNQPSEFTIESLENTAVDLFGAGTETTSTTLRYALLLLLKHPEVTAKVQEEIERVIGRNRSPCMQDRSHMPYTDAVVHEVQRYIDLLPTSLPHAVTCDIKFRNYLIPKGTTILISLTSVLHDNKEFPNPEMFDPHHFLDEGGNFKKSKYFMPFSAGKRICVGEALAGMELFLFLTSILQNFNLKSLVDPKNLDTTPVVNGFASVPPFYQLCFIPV
Series [3] deals with human CYP2C19 (Homo sapiens, UniProt P33261).
human CYP2C19, sequence (P33261 whole entry): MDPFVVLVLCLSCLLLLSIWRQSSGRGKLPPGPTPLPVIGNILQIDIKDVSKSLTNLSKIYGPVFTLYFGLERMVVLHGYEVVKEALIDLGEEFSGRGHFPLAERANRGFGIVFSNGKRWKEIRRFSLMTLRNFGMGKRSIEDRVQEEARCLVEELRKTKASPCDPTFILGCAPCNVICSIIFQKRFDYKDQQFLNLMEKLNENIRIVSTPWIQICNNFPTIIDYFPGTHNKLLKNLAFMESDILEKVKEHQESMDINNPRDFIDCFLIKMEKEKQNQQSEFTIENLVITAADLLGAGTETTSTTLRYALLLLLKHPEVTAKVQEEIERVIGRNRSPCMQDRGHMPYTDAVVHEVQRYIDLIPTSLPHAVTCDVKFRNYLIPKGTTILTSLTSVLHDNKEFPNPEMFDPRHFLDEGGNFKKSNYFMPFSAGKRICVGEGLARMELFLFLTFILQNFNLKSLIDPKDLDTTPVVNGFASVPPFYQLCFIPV
Series [4] concerns the target human CYP2D6 (Homo sapiens, UniProt P10635).
Series [5] has as its target CYP3A4 (Homo sapiens, UniProt P08684).

human CYP2D6, sequence (P10635 whole entry): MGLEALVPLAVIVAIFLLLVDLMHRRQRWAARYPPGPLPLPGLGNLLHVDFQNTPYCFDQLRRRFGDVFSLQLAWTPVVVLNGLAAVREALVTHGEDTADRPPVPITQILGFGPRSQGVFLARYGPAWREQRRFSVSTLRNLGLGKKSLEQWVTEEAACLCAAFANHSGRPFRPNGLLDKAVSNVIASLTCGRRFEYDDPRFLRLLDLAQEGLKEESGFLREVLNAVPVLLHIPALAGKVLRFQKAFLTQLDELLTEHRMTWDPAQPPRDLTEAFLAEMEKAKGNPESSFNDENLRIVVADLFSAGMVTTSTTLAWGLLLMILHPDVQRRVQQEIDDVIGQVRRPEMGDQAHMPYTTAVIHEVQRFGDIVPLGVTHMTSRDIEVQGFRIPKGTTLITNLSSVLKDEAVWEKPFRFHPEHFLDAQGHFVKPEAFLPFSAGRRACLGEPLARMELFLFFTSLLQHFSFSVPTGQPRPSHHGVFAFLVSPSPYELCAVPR
CYP3A4, sequence (P08684 whole entry): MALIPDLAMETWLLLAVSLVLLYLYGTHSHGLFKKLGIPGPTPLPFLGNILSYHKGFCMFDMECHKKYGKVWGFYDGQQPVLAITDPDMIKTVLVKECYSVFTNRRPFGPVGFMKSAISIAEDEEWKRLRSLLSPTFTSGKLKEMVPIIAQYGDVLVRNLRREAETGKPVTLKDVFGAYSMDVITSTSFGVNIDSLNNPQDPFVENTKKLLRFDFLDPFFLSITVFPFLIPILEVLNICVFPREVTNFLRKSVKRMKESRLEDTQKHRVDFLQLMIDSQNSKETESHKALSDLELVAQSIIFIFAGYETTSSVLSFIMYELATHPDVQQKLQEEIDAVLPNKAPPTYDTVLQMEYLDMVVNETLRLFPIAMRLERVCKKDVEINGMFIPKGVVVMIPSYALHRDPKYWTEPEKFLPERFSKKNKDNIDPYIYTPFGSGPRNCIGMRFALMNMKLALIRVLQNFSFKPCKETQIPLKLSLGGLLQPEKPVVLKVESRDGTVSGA

As to `CC(C)N1C(=O)c2ccccc2C1=O` [N-Isopropylphthalimide], the figures for the concentration at half-maximal activity (AC50) in series [1] and in series [5] were 35.6 µM and 57.7 µM, respectively. The “CYP2C9 AC50 (half-maximal activity concentration)” value (“CYP2C9 AC50” below) in series [2] was “Inconclusive inhibitor”. In addition, the “CYP2C19 AC50 (half-maximal activity concentration)” value (from here on “CYP2C19 AC50”) in series [3] is reported as “Inactive”. Moreover, in series [4], the “CYP2D6 AC50 (half-maximal activity concentration)” value (“CYP2D6 AC50” for short) is “Inactive”.

Consider `O=C(O)C[C@H](NC(=O)OCc1ccccc1)C(=O)O` [N-[(Benzyloxy)carbonyl]-L-aspartic acid], for which, in series [1], the “CYP1A2 AC50 (half-maximal activity concentration)” value (“CYP1A2 AC50” below) was “Inactive”. Moreover, in series [2], the “CYP2C9 AC50” value is reported as “Inactive”. Also, in series [3], the “CYP2C19 AC50” value was “Inactive”. Further, in series [4], the “CYP2D6 AC50” value was “Inactive”. The AC50 in series [5] is 35.5 µM.

On to `C[C@]12CC[C@H]3[C@@H](CCC4=CC(=O)CC[C@@H]43)[C@@H]1CC[C@@H]2OC(=O)CCC1CCCCC1` [Nandrolone cyclohexylpropionate], for which the concentration at half-maximal activity (AC50) in series [1] was found to be 26.8 µM; in series [2], 17.4 µM; in series [5], 4.56 µM. Also, the “CYP2C19 AC50” value in series [3] is “Inconclusive inhibitor”. For the same molecule, in series [4], the “CYP2D6 AC50” value was “Inactive”.

On to `CC(C)(COC(=O)c1ccccc1)COC(=O)c1ccccc1` [Neopentyl glycol dibenzoate], for which the AC50 in series [1] is 47.7 µM; in series [2], 6.58 µM; in series [3], 20.8 µM; in series [5], 35.7 µM. The “CYP2D6 AC50” value in series [4] is “Inactive”.

Turning to `Cc1cc(C)nc(O)n1.O=C(Nc1ccc([N+](=O)[O-])cc1)Nc1ccc([N+](=O)[O-])cc1` [Nicarbazin], the “CYP1A2 AC50” value in series [1] is given as “Inactive”. The “CYP2C9 AC50” value in series [2] is “Inactive”. The “CYP2C19 AC50” value in series [3] was “Inconclusive inhibitor”. For the same molecule, the “CYP2D6 AC50” value in series [4] is given as “Inactive”. In series [5], this molecule gave an AC50 of 7.42 µM.

As for `O=C(O)C(F)(F)C(F)(F)C(F)(F)C(F)(F)C(F)(F)F` [PFHxA], the “CYP1A2 AC50” value in series [1] is “Inactive”. For the same molecule, the AC50 in series [2] came to 17.5 µM; in series [5], 58.1 µM. Further, in series [3], the “CYP2C19 AC50” value is recorded as “Inactive”. In addition, the “CYP2D6 AC50” value in series [4] is “Inconclusive inhibitor”.

`N.O=C(O)C(F)(F)C(F)(F)C(F)(F)C(F)(F)C(F)(F)C(F)(F)C(F)(F)F` [PFOA, ammonium salt]: the “CYP1A2 AC50” value in series [1] is reported as “Inactive”. Further, the AC50 is 1.78 µM in series [2], 60.8 µM in series [3] and 76.8 µM in series [5]. Also, the “CYP2D6 AC50” value in series [4] is “Inactive”.

Take `O=C(O)C(F)(F)C(F)(F)C(F)(F)C(F)(F)C(F)(F)C(F)(F)C(F)(F)F` [PFOA]: the “CYP1A2 AC50” value in series [1] is listed as “Inactive”. Also, the concentration at half-maximal activity (AC50) in series [2] is 2.52 µM; in series [5] it was 70.8 µM. Also, the “CYP2C19 AC50” value in series [3] is recorded as “Inactive”. In series [4], the “CYP2D6 AC50” value was “Inactive”.

In the case of `CCOC(=O)c1ccc(N(C)C)cc1` [Parbenate], the AC50 amounted to 4.68 µM in series [1], 31.9 µM in series [2], 21.6 µM in series [3] and 47.9 µM in series [5]. Further, the “CYP2D6 AC50” value in series [4] is “Inactive”.

As to `O=C(OCCCCCOC(=O)c1ccccc1)c1ccccc1` [Pentane-1,5-diyl dibenzoate], the AC50 in series [1] was determined as 8.29 µM; in series [2], 10.5 µM; in series [3], 48.1 µM; in series [5], 26.9 µM. The “CYP2D6 AC50” value in series [4] is “Inactive”.

`CN1C(=O)N(c2ccccc2Br)Cc2cnc(Nc3ccc4c(c3)OCC(CO)O4)nc21` (stereo not shown) [PharmaGSID_48519]: the AC50 in series [1] turned out to be 30.7 µM; in series [2], 12.2 µM; in series [3] it was 5.72 µM; in series [4] it was 56.6 µM; in series [5], 1.4 µM.

`CC(C)C(=O)OCCOc1ccccc1` [Phenoxyethyl isobutyrate]: the concentration at half-maximal activity (AC50) was found to be 31.9 µM in series [1], 36 µM in series [2], 38.5 µM in series [3] and 22.6 µM in series [5]. For the same molecule, the “CYP2D6 AC50” value in series [4] is listed as “Inactive”.

Turning to `CCC(=O)OCCOc1ccccc1` [Phenoxyethyl propionate], the concentration at half-maximal activity (AC50) in series [1] came to 55.5 µM; in series [5], 47.1 µM. The “CYP2C9 AC50” value in series [2] is reported as “Inconclusive”. For the same molecule, in series [3], the “CYP2C19 AC50” value is on record as “Inconclusive inhibitor”. In addition, the “CYP2D6 AC50” value in series [4] is given as “Inactive”.

As for `COC(=O)c1ccccc1C(=O)c1ccc(OCCN2CCCCC2)cc1.Cl` [Pitofenone hydrochloride], the “CYP1A2 AC50” value in series [1] is on record as “Inactive”. For the same molecule, in series [2], the “CYP2C9 AC50” value is listed as “Inactive”. Moreover, in series [3], the “CYP2C19 AC50” value was “Inactive”. For the same molecule, the figures for the AC50 in series [4] and in series [5] were 14.9 µM and 15.5 µM, respectively.

For the molecule `CCCOc1ccc2c(c1)CC[C@@H]1[C@@H]2CC[C@]2(C)[C@@H](OC)CC[C@@H]12` [Promestriene], the values for the AC50 in series [1], in series [4] and in series [5] were 33.7 µM, 21.5 µM and 9.46 µM, respectively. Besides, the “CYP2C9 AC50” value in series [2] was “Inconclusive inhibitor”. Further, the “CYP2C19 AC50” value in series [3] is listed as “Inconclusive inhibitor”.

For the molecule `CCCCCCCCS(=O)(=O)[O-].[Na+]` [Sodium 1-octanesulfonate], the “CYP1A2 AC50” value in series [1] is given as “Inactive”. Moreover, the values for the AC50 in series [2] and in series [5] were 44.1 µM and 33.1 µM, respectively. The “CYP2C19 AC50” value in series [3] was “Inactive”. In addition, in series [4], the “CYP2D6 AC50” value is “Inactive”.

As to `CCCCCCCCc1ccc(S(=O)(=O)[O-])cc1.[Na+]` [Sodium 4-octylbenzenesulfonate], in series [1], the “CYP1A2 AC50” value is reported as “Inactive”. For the same molecule, the concentration at half-maximal activity (AC50) in series [2] stood at 76.8 µM; in series [5] it was 63.9 µM. Moreover, the “CYP2C19 AC50” value in series [3] is listed as “Inactive”. Further, in series [4], the “CYP2D6 AC50” value is reported as “Inactive”.

In the case of `C=Cc1ccc(S(=O)(=O)[O-])cc1.[Na+]` [Sodium 4-vinylbenzenesulfonate], the AC50 in series [1] was 63.5 µM; in series [5], 30.1 µM. In addition, in series [2], the “CYP2C9 AC50” value is reported as “Inactive”. Further, the “CYP2C19 AC50” value in series [3] was “Inactive”. For the same molecule, the “CYP2D6 AC50” value in series [4] is “Inactive”.

Take `CCOC(=O)c1ccc(NC(=O)CN2CCCCC2)cc1` [Sulcaine]: the AC50 in series [1] is 22.2 µM; in series [2] it was 37.8 µM; in series [4], 16.8 µM; in series [5], 26.4 µM. Besides, the “CYP2C19 AC50” value in series [3] is listed as “Inactive”.

`O=C(O)CC(C(=O)O)S(=O)(=O)O` (stereo not shown) [Sulfosuccinic acid]: the half-maximal activity concentration (AC50) in series [1] is 33 µM; in series [3], 11.9 µM; in series [4] it was 60.6 µM; in series [5], 43.2 µM. Moreover, in series [2], the “CYP2C9 AC50” value is “Inactive”.

Take `CN(C)C1CSSSC1.O=C(O)C(=O)O` [Thiocyclam oxalate]: the AC50 came out at 61 µM in series [1]; 28.3 µM in series [2]; 38.5 µM in series [3]; 38.5 µM in series [4]; 33 µM in series [5].

For `Cc1ccc(C(C)OC(=O)[C@]2(C)CC[C@H](C(=O)O)C2(C)C)cc1.OCCNCCO` (stereo partly shown) [Tocanfil], the “CYP1A2 AC50” value in series [1] was “Inactive”. Also, the AC50 in series [2] came out at 36.1 µM; in series [5] it was 14.4 µM. The “CYP2C19 AC50” value in series [3] is on record as “Inactive”. Also, the “CYP2D6 AC50” value in series [4] is given as “Inactive”.

`CCCCCCCCCCCC(=O)O.OCCN(CCO)CCO` [Triethanolamine Laurate]: the “CYP1A2 AC50” value in series [1] is recorded as “Inconclusive inhibitor”. The concentration at half-maximal activity (AC50) in series [2] stood at 115 µM; in series [3], 135 µM; in series [5], 89.2 µM. The “CYP2D6 AC50” value in series [4] is “Inactive”.

With `O=C(OCCOCCOCCOC(=O)c1ccccc1)c1ccccc1` [Triethylene glycol dibenzoate], the AC50 in series [1] is 17.8 µM; in series [2], 2.75 µM; in series [3] it was 20.8 µM. Further, the “CYP2D6 AC50” value in series [4] is on record as “Inconclusive inhibitor”. In series [5], the “CYP3A4 AC50 (half-maximal activity concentration)” value is “Inactive”.

On to `COC(=O)c1ccc(C(=O)OC)c(C(=O)OC)c1` [Trimethyl benzene-1,2,4-tricarboxylate], for which the AC50 in series [1] stood at 7.19 µM; in series [3], 32.3 µM; in series [5] it was 49.9 µM. Also, in series [2], the “CYP2C9 AC50” value is on record as “Inactive”. In addition, the “CYP2D6 AC50” value in series [4] is “Inactive”.

`O=C(CCC1CCN(Cc2ccccc2)CC1)c1ccc2c(c1)NCCCC2.O=C(O)/C=C/C(=O)O` [Zanapezil fumerate]: the “CYP1A2 AC50” value in series [1] is given as “Inconclusive inhibitor”. Besides, the “CYP2C9 AC50” value in series [2] is reported as “Inconclusive inhibitor”. Moreover, in series [3], the “CYP2C19 AC50” value was “Inactive”. Besides, the AC50 was 7.12 µM in series [4] and 3.4 µM in series [5].

In general, AC50 refers to the concentration at which the activity in the assay is half-maximal. Read a low AC50 as activity at low concentration.
